Assays:
[1] = Study-2 safety/tolerability (adverse events)
Protocol: In total, 60 subjects were enrolled into five dose cohorts (n = 12 in each), and subjects were randomised (3:1) to receive seletalisib or placebo. Study-2 included initial dose cohorts of 30, 60 and 90 mg once-daily plus additional dose cohorts of 30 mg twice-daily and 45 mg once-daily.
(§1) Adverse events (AEs), serious AEs (SAEs), routine clinical laboratory parameters, vital signs and ECGs were monitored throughout the study periods and for ≤7 days post-administration of final-dose of seletalisib/placebo. The potential for seletalisib to cause gastrointestinal (GI) tract adverse effects was assessed by careful monitoring of subject reports of AEs such as abdominal pain, bloating, nausea, vomiting and alteration of bowel function (e.g. diarrhoea, constipation or bleeding). A formal safety review was conducted before each dose escalation. In Study-1 (Part-B), the potential for seletalisib to interfere with insulin signalling was assessed by monitoring blood glucose and C-peptide levels as part of the standard laboratory tests and by performance of oral glucose tolerance tests, measuring glucose and C-peptide levels, pre-dose and during exposure in all cohorts.
(§2) In each study, the primary population for analysis was the full analysis set (FAS), which comprised all subjects who had received ≥1 dose of seletalisib or placebo. PK analysis was performed on the PK per-protocol set (PK-PPS), which was a subset of the FAS consisting of subjects with no important protocol deviations likely to affect PK variables who received seletalisib; subjects who received placebo were excluded from this analysis. In Study-1 and Study-2, sample sizes of 57 and 36 subjects, respectively, were considered sufficient to permit assessment of the safety and tolerability of seletalisib and were not based on statistical considerations of power and sample size. In Study-1 (Part-A), a panel size of 15 subjects was selected to achieve good estimates of the PK/PD parameters.

[2] = Study-1 Part-A safety/tolerability (adverse events), single doses; details: for Deaths: Study-1 Part-A
Protocol: Study-1 (Part-A), comprised single doses of seletalisib (1, 5, 10 and 15 mg) administered to healthy subjects using an alternating panel approach (Table 1). Panel 1 consisted of 17 subjects and panel 2 of 18 subjects. In each panel subjects were randomised to one of three sequences and received different ascending doses of seletalisib or placebo over three (panel 1) or two (panel 2) periods (Table 1). In the third period of panel 1, a preliminary assessment of food effect was made, all subjects received seletalisib 5 mg 30 min after a high-fat, high-calorie meal.
as §1, §2

psoriatic lesional skin = test: Study-1 Part-B exploratory PD in subjects with mild-to-moderate psoriasis (lesion scores, lesional skin biopsies); type: in vivo, human; details: six subjects with psoriasis
Protocol: To enable assessment of target engagement, the following exploratory PD assessments were performed at various time points prior to and following study drug administration in those subjects with mild-to-moderate psoriasis. Size and appearance of the psoriatic lesion of interest (selected at screening) were assessed by lesion severity score and lesion area. Total affected area (percentage of BSA) and Physician’s Global Assessment were assessed to evaluate overall disease severity. Histological assessments of skin biopsies (6 mm) were performed by immunofluorescent microscopy of frozen sections of lesional skin, except for haematoxylin and eosin staining and IL-17 staining which were performed on formalin fixed paraffin embedded sections. Numbers of T cells (CD3), Langerhans cells (CD1a), neutrophils (MPO) and dermal dendritic cells (CD11c) were determined.  Fig. 3 Cellular responses in lesional biopsies. Lesional biopsies were taken on days 4 and 14 from each patient, and subsequently fixed, sectioned and, using immunofluorescence, stained for CD11c (dendritic cells), CD1a (Langerhans cells), CD3 (T cells) and myeloperoxidase (MPO; neutrophils). Cells were identified using a nuclear stain. Images acquired on a slide scanner were analysed using Definiens software and, following thresholding, positive cells identified. The number of positive cells per square millimeter was calculated and the fold-change in cell density from baseline was calculated. Data are mean ± SD (placebo, n = 3; treated, n = 6)

[3] = Study-1 Part-B safety/tolerability (adverse events, laboratory, OGTT), multiple doses; details: for Deaths: Study-1 multiple doses
Protocol: In Study-1 (Part-B), a total of 27 subjects were enrolled, two cohorts of healthy subjects (n = 9 in each) and one cohort of subjects with mild-to-moderate psoriasis (n = 9). Subjects were randomised (2:1) to ascending multiple doses of seletalisib (5, 8 and 15 mg) or placebo for 14 days.
as §1, §2

[4] = 15 mg, relative to placebo, lesional biopsies

With `[O-][n+]1cccc(-c2nc3c(Cl)cccc3cc2[C@@H](Nc2ncnc3cccnc23)C(F)(F)F)c1` [Seletalisib, seletalisib] the Deaths ([1]; Study-2, 30 mg BID) was 0 n (%), the Deaths ([1]; Study-2, 30 mg QD) was 0 n (%) and the Deaths ([1]; Study-2, 45 mg QD) was 0 n (%). The Deaths ([1]; Study-2, 60 mg QD) was 0 n (%), the Deaths ([1]; Study-2, 90 mg QD) was 0 n (%) and the Deaths ([1]; Study-2, seletalisib total) was 0 n (%). For the same molecule, the “Any AE, number of events […]” value ([1]; human, in vivo) was 169, the “number of rash-related AEs” value ([1]; human, in vivo) was 18 and the “number of subjects with AEs relating to GI disturbance” value ([1]; human, in vivo) was 10. The “number of subjects with rash-related AEs” value ([1]; human, in vivo) was 12, the “subjects who discontinued the study due to an AE” value ([1]; human, in vivo) was 13.3% and the “subjects who experienced an AE” value ([1]; human, in vivo) was 71.1%. The “subjects with SAEs” value ([1]; human, in vivo) was 4.4%, the subjects with headache ([1]; human, in vivo) was 24.4% and the subjects with rash ([1]; human, in vivo) was 24.4%. The Abdominal discomfort ([1]; human, in vivo, 14 days) was 2 (4.4) n (%), the Abdominal pain ([1]; human, in vivo, 14 days) was 5 (11.1) n (%) and the “Any AE” value ([1]; human, in vivo, 14 days) was 32 (71.1) n (%). The “Dermatitis, contact” value ([1]; human, in vivo, 14 days) was 4 (8.9) n (%), the Diarrhoea ([1]; human, in vivo, 14 days) was 3 (6.7) n (%) and the “Discontinuations due to AEs” value ([1]; human, in vivo, 14 days) was 6 (13.3) n (%). For the same molecule, the “Discontinuations due to AEs, number of events […]” value ([1]; human, in vivo, 14 days) was 6, the Dizziness ([1]; human, in vivo, 14 days) was 5 (11.1) n (%) and the “Drug-related AEs” value ([1]; human, in vivo, 14 days) was 24 (53.3) n (%). For the same molecule, the “Drug-related AEs, number of events […]” value ([1]; human, in vivo, 14 days) was 136, the Dry mouth ([1]; human, in vivo, 14 days) was 2 (4.4) n (%) and the Dysgeusia ([1]; human, in vivo, 14 days) was 5 (11.1) n (%). The Furuncle ([1]; human, in vivo, 14 days) was 2 (4.4) n (%), the Headache ([1]; human, in vivo, 14 days) was 11 (24.4) n (%) and the Initial insomnia ([1]; human, in vivo, 14 days) was 2 (4.4) n (%). The Nausea ([1]; human, in vivo, 14 days) was 6 (13.3) n (%), the Oropharyngeal pain ([1]; human, in vivo, 14 days) was 6 (13.3) n (%) and the Rash ([1]; human, in vivo, 14 days) was 11 (24.4) n (%). The “Rash, generalised” value ([1]; human, in vivo, 14 days) was 3 (6.7) n (%), the Regurgitation ([1]; human, in vivo, 14 days) was 2 (4.4) n (%) and the “Serious AEs” value ([1]; human, in vivo, 14 days) was 2 (4.4) n (%). The “Serious AEs, number of events […]” value ([1]; human, in vivo, 14 days) was 2, the “Severe AEs” value ([1]; human, in vivo, 14 days) was 3 (6.7) n (%) and the “Severe AEs, number of events […]” value ([1]; human, in vivo, 14 days) was 3. For the same molecule, the Somnolence ([1]; human, in vivo, 14 days) was 2 (4.4) n (%), the Toothache ([1]; human, in vivo, 14 days) was 2 (4.4) n (%) and the Hypoaesthesia oral ([1]; human, in vivo, po, 14 days) was 2 (4.4) n (%). For the same molecule, the “number of AEs relating to GI disturbance” value ([1]; in vivo) was “Thirty-two”, the “number of infection-related AEs” value ([1]; in vivo) was “four” and the Deaths ([2]; seletalisib total) was 0 n (%). The Deaths ([2]; single dose 1 mg) was 0 n (%), the Deaths ([2]; single dose 5 mg) was 0 n (%) and the Deaths ([2]; single dose 5 mg fed) was 0 n (%). For the same molecule, the Deaths ([2]; single dose 10 mg) was 0 n (%), the Deaths ([2]; single dose 15 mg) was 0 n (%) and the “Any AE” value ([2]; human, in vivo) was 13 (39.4) n (%). The “Discontinuations due to AEs” value ([2]; human, in vivo) was 0 n (%), the “Drug-related AEs” value ([2]; human, in vivo) was 2 (6.1) n (%) and the Headache ([2]; human, in vivo) was 4 (12.1) n (%). For the same molecule, the “Serious AEs” value ([2]; human, in vivo) was 0 n (%), the “Severe AEs” value ([2]; human, in vivo) was 0 n (%) and the “number of moderate-intensity AEs” value ([2]; in vivo) was “three”. The “lesion severity score, total affected area (% BSA), lesion area, Physician’s Global Assessment” value (psoriatic lesional skin; 15 mg for 14 days) was “improvements in these parameters were seen in some of the six subjects”, the “numbers of dermal inflammatory cells (CD3+, CD11c+ and MPO+ cells)” value (psoriatic lesional skin; [4]) was “trend towards reduced numbers” and the “resident Langerhans cells (CD1a+ cells)” value (psoriatic lesional skin; [4]) was “return of the resident Langerhans cells”. For the same molecule, the Deaths ([3]; 5 mg, 14 days) was 0 n (%), the Deaths ([3]; 8 mg, 14 days) was 0 n (%) and the Deaths ([3]; 15 mg, 14 days (psoriasis cohort)) was 0 n (%). For the same molecule, the Deaths ([3]; seletalisib total) was 0 n (%), the “glucose handling versus baseline (oral glucose tolerance test)” value ([3]; in vivo) was “no significant alteration” and the neutrophil counts ([3]; in vivo) was “Modest reductions”. The “number of AEs of potential GI disturbance” value ([3]; in vivo) was “Six” and the “number of moderate AEs” value ([3]; in vivo) was “three”.
